Measurements as given in paper PMC6302903, “Protein and Chemical Determinants of BL-1249 Action and Selectivity for K2P Channels” (ACS Chemical Neuroscience, 2018).
In brackets after ≈: the same amount, converted by molar mass.

Columns and labels:
[1] = target: T1, K2P10.1(TREK-2) (Mus musculus, UniProt Q8BUW1); experiment: TEVC of K2P10.1(TREK-2) in Xenopus oocytes; type: cell-based
T1 construct: expressed in transfected cells; host or cells: Xenopus laevis oocytes injected with mRNA made from pGEMHE/pMO
T1 sequence (Q8BUW1 whole entry): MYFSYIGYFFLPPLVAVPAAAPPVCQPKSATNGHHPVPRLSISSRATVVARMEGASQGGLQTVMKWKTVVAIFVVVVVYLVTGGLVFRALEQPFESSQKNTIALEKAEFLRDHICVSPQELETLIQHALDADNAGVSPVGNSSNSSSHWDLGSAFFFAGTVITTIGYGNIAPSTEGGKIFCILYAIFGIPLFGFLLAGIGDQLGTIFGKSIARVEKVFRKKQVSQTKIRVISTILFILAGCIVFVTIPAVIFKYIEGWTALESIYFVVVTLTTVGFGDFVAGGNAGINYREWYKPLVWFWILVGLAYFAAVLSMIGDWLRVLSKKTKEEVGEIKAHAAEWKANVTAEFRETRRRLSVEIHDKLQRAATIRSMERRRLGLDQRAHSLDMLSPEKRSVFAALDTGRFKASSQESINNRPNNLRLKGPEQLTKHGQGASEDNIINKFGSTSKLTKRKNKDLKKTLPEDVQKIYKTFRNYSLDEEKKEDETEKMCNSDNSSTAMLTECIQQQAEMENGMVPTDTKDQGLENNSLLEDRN
From the text: (§1) Constructs for murine K2P channels, including K2P2.1(TREK-1) (Gene ID 16526), K2P10.1(TREK-2) (Gene ID 72258), K2P4.1(TRAAK) (Gene ID 16528), K2P5.1(TASK-2) (Gene ID 16529), K2P3.1(TASK-1) (Gene ID 16527), K2P9.1(TASK-3) (Gene ID 223604), and K2P18.1(TRESK) (Gene ID 332396) in pGEMHE/pMO, were used for Xenopus oocyte experiments as previously described.[10],[26] Murine K2P2.1(TREK-1) (Gene ID 16526) was expressed in HEK-293 cells using a pIRES-EGFP construct as previously described.[26] Murine K2P13.1(THIK-1) (Gene ID 217826) and K2P1.1(TWIK-1) (Gene ID 16525) were cloned into pGEMHE/pMO for use in Xenopus oocytes. […]
(§2) Xenopus laevis oocytes were harvested in accordance with UCSF IACUC protocol AN129690 and digested in calcium-free ND-96 (96 mM NaCl, 2 mM KCl, 3.8 mM MgCl2) immediately following harvest, as previously described.[6],[10] […] Defolliculated stage V–VI oocytes were injected with 0.2–6.0 ng of mRNA in 50 nL, and currents were recorded 24–48 h after injection. mRNA was synthesized from plasmid DNA using mMessage mMachine Kit (T7 promoter, Ambion, Life Technologies) and purified using RNEasy Kit (Qiagen). […] Once stabilized basal currents were recorded, compounds were perfused at various concentrations in standard ND96 and currents were allowed to increase to stabilization before recording final current. […]

[2] = target: T2, K2P2.1(TREK-1)Δ308 (Mus musculus, UniProt P97438); experiment: TEVC of C-terminal truncation at residue 308; type: cell-based; details: Xenopus oocytes, saturation not reached, fit with upper boundary of 15 (I/I0)
T2 construct: and at residue 308, K2P2.1(TREK-1)Δ308; expressed in transfected cells; host or cells: Xenopus laevis oocytes, mRNA injected
T2 sequence (P97438 1-308 isoform P97438-2): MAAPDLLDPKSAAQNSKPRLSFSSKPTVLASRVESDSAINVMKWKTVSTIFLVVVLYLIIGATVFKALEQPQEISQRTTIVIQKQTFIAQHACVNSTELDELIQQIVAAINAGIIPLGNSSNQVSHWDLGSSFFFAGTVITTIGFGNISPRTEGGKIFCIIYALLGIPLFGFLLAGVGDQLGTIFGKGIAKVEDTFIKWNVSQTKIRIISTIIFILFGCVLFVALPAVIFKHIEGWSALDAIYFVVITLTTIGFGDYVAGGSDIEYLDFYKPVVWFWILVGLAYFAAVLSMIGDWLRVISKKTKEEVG
From the text: as §1, §2

[3] = target: T3, K2P2.1(TREK-1) W275S (Mus musculus, UniProt P97438, W290S); experiment: TEVC of C-type gate activating mutant W275S; type: cell-based; details: Xenopus oocytes
T3 construct: expressed in transfected cells; host or cells: Xenopus laevis oocytes, mRNA injected
T3 sequence (P97438 1-411 isoform P97438-2 W275S): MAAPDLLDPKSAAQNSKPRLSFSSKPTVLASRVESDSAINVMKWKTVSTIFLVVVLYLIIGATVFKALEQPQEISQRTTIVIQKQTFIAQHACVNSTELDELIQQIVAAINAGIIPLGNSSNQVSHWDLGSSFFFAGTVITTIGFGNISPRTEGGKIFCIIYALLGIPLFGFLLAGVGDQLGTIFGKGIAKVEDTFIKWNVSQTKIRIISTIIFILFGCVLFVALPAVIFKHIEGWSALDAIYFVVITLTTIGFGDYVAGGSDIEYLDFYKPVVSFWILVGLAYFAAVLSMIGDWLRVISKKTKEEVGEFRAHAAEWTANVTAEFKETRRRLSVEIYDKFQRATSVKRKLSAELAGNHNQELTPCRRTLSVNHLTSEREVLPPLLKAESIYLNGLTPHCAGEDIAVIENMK
From the text: Diverse types of physical and chemical stimuli activate K2P2.1(TREK-1) by stabilizing the C-type gate and switching the channel into a “leak” mode that is characterized by a loss of outward rectification of the potassium current.[6],[8] Accordingly, we used inside-out patch clamp experiments of K2P2.1(TREK-1) expressed in HEK293 cells to test whether BL-1249 acts on the C-type gate. […] Together with previous single point concentration studies showing the insensitivity of K2P2.1(TREK-1) W275S in mammalian cells,[40] our data provide definitive evidence that BL-1249 activates K2P2.1(TREK-1) by stimulating the C-type gate. […]
as §2

[4] = target: T4, K2P3.1(TASK-1) (Mus musculus, UniProt O35111); experiment: TEVC of K2P3.1(TASK-1) in Xenopus oocytes; type: cell-based; details: concentrations up to the solubility limit (∼80 μM)
T4 construct: expressed in transfected cells; host or cells: Xenopus laevis oocytes injected with mRNA made from pGEMHE/pMO
T4 sequence (O35111 whole entry): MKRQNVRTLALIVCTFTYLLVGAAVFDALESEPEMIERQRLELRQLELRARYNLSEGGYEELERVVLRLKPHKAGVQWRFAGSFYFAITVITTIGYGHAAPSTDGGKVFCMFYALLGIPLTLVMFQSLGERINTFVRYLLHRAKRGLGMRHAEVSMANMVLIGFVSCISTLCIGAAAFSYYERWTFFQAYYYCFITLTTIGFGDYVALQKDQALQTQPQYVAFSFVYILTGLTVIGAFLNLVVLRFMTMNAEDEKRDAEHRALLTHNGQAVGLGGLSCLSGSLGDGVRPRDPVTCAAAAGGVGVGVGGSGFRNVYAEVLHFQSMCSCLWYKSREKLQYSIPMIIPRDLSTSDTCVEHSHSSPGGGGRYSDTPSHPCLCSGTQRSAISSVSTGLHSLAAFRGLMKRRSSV
Protocol: (§3) BL-1249 activates K2P2.1(TREK-1)[18],[40] and K2P10.1(TREK-2),[7] but its effects on other K2P channels have not been characterized. […] In order to test if the original 10 μM assay had missed BL-1249 effects in other K2P channels, we tested concentrations of BL-1249 up to the solubility limit (∼80 μM) against the other K2P subfamily representatives. […]
as §2, with “current. Fold activation upon compound application is expressed as I/I0 (0 mV), derived from the current at 0 mV in the presence of compound divided by the basal current at 0 mV in standard ND96 without compound. Data were analyzed and plotted using Graphpad Prism Version 5 (GraphPad Software, San Diego California USA, www.graphpad.com).” for “current.”

[5] = target: T5, K2P5.1(TASK-2) (Mus musculus, UniProt F6V9U5); experiment: TEVC of K2P5.1(TASK-2) in Xenopus oocytes; type: cell-based; details: concentrations up to the solubility limit (∼80 μM)
T5 construct: expressed in transfected cells; host or cells: Xenopus laevis oocytes (mRNA injection, pGEMHE/pMO)
T5 sequence (F6V9U5 1-502): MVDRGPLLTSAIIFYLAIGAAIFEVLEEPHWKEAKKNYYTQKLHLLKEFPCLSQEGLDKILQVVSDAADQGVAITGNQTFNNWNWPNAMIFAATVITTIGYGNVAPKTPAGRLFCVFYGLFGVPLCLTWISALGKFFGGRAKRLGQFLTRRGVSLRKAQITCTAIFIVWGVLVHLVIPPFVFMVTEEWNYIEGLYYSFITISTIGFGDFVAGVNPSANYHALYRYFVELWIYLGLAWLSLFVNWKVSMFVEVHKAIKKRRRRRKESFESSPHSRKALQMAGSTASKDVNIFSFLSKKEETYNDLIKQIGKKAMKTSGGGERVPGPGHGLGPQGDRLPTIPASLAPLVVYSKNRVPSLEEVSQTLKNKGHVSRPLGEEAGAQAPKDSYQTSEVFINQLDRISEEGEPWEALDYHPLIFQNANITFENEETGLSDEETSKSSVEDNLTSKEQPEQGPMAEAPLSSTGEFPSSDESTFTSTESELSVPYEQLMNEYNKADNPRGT
Protocol: as §3
as §2, with “current. Fold activation upon compound application is expressed as I/I0 (0 mV), derived from the current at 0 mV in the presence of compound divided by the basal current at 0 mV in standard ND96 without compound. Data were analyzed and plotted using Graphpad Prism Version 5 (GraphPad Software, San Diego California USA, www.graphpad.com).” for “current.”

[6] = target: T6, K2P9.1(TASK-3) (Mus musculus, UniProt Q3LS21); experiment: TEVC of K2P9.1(TASK-3) in Xenopus oocytes; type: cell-based; details: concentrations up to the solubility limit (∼80 μM)
T6 construct: expressed in transfected cells; host or cells: Xenopus laevis oocytes (mRNA injection, pGEMHE/pMO)
T6 sequence (Q3LS21 whole entry): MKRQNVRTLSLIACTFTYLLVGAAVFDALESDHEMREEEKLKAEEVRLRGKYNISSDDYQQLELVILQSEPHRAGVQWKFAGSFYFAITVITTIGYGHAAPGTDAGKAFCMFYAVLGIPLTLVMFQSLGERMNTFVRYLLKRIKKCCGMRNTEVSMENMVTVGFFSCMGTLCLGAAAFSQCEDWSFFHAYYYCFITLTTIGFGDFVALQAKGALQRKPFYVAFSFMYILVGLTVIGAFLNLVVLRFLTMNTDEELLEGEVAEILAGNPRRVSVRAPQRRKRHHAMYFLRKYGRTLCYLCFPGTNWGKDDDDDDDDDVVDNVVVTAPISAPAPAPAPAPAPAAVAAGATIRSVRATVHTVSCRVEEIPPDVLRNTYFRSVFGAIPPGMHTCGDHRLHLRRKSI
Protocol: as §3
as §2, with “current. Fold activation upon compound application is expressed as I/I0 (0 mV), derived from the current at 0 mV in the presence of compound divided by the basal current at 0 mV in standard ND96 without compound. Data were analyzed and plotted using Graphpad Prism Version 5 (GraphPad Software, San Diego California USA, www.graphpad.com).” for “current.”

[7] = target: T7, K2P13.1(THIK-1) (Mus musculus, UniProt Q8R1P5); experiment: TEVC of K2P13.1(THIK-1) in Xenopus oocytes; type: cell-based; details: concentrations up to the solubility limit (∼80 μM)
T7 construct: expressed in transfected cells; host or cells: Xenopus laevis oocytes (mRNA injection, pGEMHE/pMO)
T7 sequence (Q8R1P5 whole entry): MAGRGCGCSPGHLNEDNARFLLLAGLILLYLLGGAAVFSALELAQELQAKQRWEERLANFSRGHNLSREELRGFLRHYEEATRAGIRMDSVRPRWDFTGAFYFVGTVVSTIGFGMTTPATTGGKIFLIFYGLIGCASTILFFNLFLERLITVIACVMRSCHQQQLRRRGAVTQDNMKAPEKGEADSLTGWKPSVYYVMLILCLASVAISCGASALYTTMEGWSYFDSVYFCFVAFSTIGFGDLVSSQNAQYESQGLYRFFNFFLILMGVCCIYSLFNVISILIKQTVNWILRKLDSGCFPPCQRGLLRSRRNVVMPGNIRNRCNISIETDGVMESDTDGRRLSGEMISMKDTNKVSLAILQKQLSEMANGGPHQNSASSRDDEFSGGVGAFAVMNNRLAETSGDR
Protocol: as §3
as §2, with “current. Fold activation upon compound application is expressed as I/I0 (0 mV), derived from the current at 0 mV in the presence of compound divided by the basal current at 0 mV in standard ND96 without compound. Data were analyzed and plotted using Graphpad Prism Version 5 (GraphPad Software, San Diego California USA, www.graphpad.com).” for “current.”

[8] = target: T8, K2P18.1(TRESK) (Mus musculus, UniProt Q6VV64); experiment: TEVC of K2P18.1(TRESK) in Xenopus oocytes; type: cell-based; details: concentrations up to the solubility limit (∼80 μM)
T8 construct: expressed in transfected cells; host or cells: Xenopus laevis oocytes (mRNA injection, pGEMHE/pMO)
T8 sequence (Q6VV64 whole entry): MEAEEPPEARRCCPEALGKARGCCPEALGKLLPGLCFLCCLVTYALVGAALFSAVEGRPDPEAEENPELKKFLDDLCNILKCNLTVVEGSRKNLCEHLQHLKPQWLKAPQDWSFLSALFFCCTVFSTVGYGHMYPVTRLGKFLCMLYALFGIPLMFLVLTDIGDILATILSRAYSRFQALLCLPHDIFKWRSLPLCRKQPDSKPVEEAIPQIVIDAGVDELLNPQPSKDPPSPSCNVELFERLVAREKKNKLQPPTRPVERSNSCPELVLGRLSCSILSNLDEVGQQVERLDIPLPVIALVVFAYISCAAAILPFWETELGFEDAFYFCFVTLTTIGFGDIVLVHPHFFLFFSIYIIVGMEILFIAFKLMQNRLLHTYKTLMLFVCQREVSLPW
Protocol: as §3
as §2, with “current. Fold activation upon compound application is expressed as I/I0 (0 mV), derived from the current at 0 mV in the presence of compound divided by the basal current at 0 mV in standard ND96 without compound. Data were analyzed and plotted using Graphpad Prism Version 5 (GraphPad Software, San Diego California USA, www.graphpad.com).” for “current.”

[9] = BL-1249 solubility limit in recording solution; type: physicochemical; details: standard ND96 recording solution
Protocol: BL-1249 activates K2P2.1(TREK-1)[18],[40] and K2P10.1(TREK-2),[7] but its effects on other K2P channels have not been characterized. […] In order to test if the original 10 μM assay had missed BL-1249 effects in other K2P channels, we tested concentrations of BL-1249 up to the solubility limit (∼80 μM) against the other K2P subfamily representatives.

[10] = system: K2P18.1(TRESK); design: method as in PMID 27641472; details: cited from earlier work

- EC50 ([1]; I/I0 at 0 mV): 8 ± 0.8 µM
- K2P10.1(TREK-2) current response ([1]; extracellular application of 10 μM): clear activation responses
- EC50 [2]: 35 ± 8 µM
- EC50 [3]: > 60 µM
- sensitivity of K2P2.1(TREK-1) W275S to compound [3]: insensitive
- activation of K2P3.1(TASK-1) [4]: failed to find evidence for activation
- activation of K2P5.1(TASK-2) [5]: failed to find evidence for activation
- activation of K2P9.1(TASK-3) [6]: failed to find evidence for activation
- activation of K2P13.1(THIK-1) [7]: failed to find evidence for activation
- activation of K2P18.1(TRESK) [8]: failed to find evidence for activation
- solubility [9]: ~80 µM (≈ 23.3 µg/mL)
SMILES: c1ccc(-c2nnn[nH]2)c(Nc2cccc3c2CCCC3)c1 [BL-1249, (5,6,7,8-tetrahydro-naphthalen-1-yl)-[2-(1H-tetrazol-5-yl)-phenyl]-amine]
- functional effect on K2P18.1(TRESK) [10]: activator
